Measurements published in US20250059198A1, “BRM DEGRADING COMPOUNDS AND ASSOCIATED METHODS OF USE” (Arvinas Operations, Inc., priority 2021, published 2025).

Target: T1, BRM (Homo sapiens, UniProt P51531)
T1 construct: Western Blot Screen of BRM Degradation in SW1573 Cells; endogenous in cells; host or cells: SW1573 cells
Assay: BRM degradation (Dmax and DC50) in SW1573 cells, Western blot screen / In-Cell Western screen
Format: cell-based
Conditions: overnight (18-20 hours) treatment; for Dmax: read-out: Dmax (%)** (% degraded)
Description: (§1) To assess BRM degradation (Dmax and DC50) cells were seeded at 8000/well in 96-well black/clear-bottom plates in 180 μL DMEM growth media (containing 1% pen-strep, 1% HEPES and 10% FBS) per well. Plates were incubated overnight to allow adhesion. The next morning cells were treated by adding 20 μL of 10× target compound concentration (1% DMSO) to appropriate wells and returned to incubator for overnight (18-20 hours). The final DMSO concentration was 0.1%.
For lysing, adherent cells were washed once with 100 μL of DPBS. Cells were lysed in 40 μL of 1×RIPA+HALT protease inhibitor on ice for 10 minutes and frozen until use at −80° C. Thawed lysates were cleaned by filtration in 1.2 µm filter plates, or alternatively, were spun clean at 2300 g at 4° C. for 30 minutes.
For blotting, for each Western sample 30 μL of lysate was added to 10 μL of 4× LDS sample buffer, then denatured at 95° C. for 5 minutes in the thermal cycler and placed on ice. Samples were loaded on 4-15% Tris/Glycine gels and run for 25 minutes at 250 constant volts in 1× Tris/Glycine buffer with 4 μL of ladder and 12 μL of each sample loaded for each blot. Protein was transferred from gels to NC with BioRad Turbo dry-transfer unit with the Turbo/midi default program. All blots were rinsed with ddH2O and blocked for 1 hour at room temperature in 5% BSA in TBST (0.1%) on rocker. Blots were exposed to primary antibody in 5% BSA in TBST (0.1%) overnight at 4° C. on rocker (1:1000 for BRM (Cell Signaling Tech. cat #11966) and 1:2000 for alpha-tubulin (Cell Signaling Tech. cat #3873), a control protein. Blot was washed with TBST (0.1%) three times for 5 minutes on rocker at room temperature. Secondary antibody was added, and blots were incubated on a room temperature rocker for 1 hour with 1:18,000 anti-rabbit-HRP and/or anti-mouse-HRP in 5% BSA in TBST (0.1%). Blots were washed three times in TBST (0.1%) for 5 minutes at room temperature on the rocker. Signal was developed with Femto Maximum Sensitivity substrate for 4 minutes and blots read on ChemiDoc™.
as §1, with “DC50),” for “DC50)”, “10×” for “10× target”, “compound” for “compound concentration”
For processing, the plates were removed from incubator, the media was removed, and immediately 200 μL of cold (4° C.) DPBS was added to all wells. DPBS was then removed, and 50 μL of 4% paraformaldehyde (PFA) in DPBS (4° C.) was added to all wells, and the plates were incubated at room temperature for 20 minutes. PFA was then removed, and 200 μL of TBS-T containing 0.5% Triton X-100 was added to all wells, and the plates were incubated at room temperature for 30 minutes. TBS-T containing 0.5% Triton X-100 was then removed, and 50 μL of Li-Cor blocking solution was added, and the plates were incubated at room temperature for a minimum of one hour. The blocking solution was removed, and 50 μL of Li-Cor blocking solution containing primary antibody cocktail was added (1:1000 for BRM (Cell Signaling Tech. cat #11966) and 1:2000 for alpha-tubulin (Sigma cat #T6074), a control protein. Plates were then placed in cold room until the next day.
The next day plates were washed three times with TBS-T, 200 μL per well. Fifty […] of secondary antibody cocktail in LI-COR blocking solution (anti-rabbit_800 nm and anti-mouse_680 nm) was added to all wells (diluted 1:5000). The plates were incubated at room temperature for at least one hour while protected from light. The plates were washed twice with TBS-T, 200 μL per well.
To read each plate TBS-T was removed, and each plate was inverted tapped on a paper towel. […]

T1 sequence (P51531 whole entry): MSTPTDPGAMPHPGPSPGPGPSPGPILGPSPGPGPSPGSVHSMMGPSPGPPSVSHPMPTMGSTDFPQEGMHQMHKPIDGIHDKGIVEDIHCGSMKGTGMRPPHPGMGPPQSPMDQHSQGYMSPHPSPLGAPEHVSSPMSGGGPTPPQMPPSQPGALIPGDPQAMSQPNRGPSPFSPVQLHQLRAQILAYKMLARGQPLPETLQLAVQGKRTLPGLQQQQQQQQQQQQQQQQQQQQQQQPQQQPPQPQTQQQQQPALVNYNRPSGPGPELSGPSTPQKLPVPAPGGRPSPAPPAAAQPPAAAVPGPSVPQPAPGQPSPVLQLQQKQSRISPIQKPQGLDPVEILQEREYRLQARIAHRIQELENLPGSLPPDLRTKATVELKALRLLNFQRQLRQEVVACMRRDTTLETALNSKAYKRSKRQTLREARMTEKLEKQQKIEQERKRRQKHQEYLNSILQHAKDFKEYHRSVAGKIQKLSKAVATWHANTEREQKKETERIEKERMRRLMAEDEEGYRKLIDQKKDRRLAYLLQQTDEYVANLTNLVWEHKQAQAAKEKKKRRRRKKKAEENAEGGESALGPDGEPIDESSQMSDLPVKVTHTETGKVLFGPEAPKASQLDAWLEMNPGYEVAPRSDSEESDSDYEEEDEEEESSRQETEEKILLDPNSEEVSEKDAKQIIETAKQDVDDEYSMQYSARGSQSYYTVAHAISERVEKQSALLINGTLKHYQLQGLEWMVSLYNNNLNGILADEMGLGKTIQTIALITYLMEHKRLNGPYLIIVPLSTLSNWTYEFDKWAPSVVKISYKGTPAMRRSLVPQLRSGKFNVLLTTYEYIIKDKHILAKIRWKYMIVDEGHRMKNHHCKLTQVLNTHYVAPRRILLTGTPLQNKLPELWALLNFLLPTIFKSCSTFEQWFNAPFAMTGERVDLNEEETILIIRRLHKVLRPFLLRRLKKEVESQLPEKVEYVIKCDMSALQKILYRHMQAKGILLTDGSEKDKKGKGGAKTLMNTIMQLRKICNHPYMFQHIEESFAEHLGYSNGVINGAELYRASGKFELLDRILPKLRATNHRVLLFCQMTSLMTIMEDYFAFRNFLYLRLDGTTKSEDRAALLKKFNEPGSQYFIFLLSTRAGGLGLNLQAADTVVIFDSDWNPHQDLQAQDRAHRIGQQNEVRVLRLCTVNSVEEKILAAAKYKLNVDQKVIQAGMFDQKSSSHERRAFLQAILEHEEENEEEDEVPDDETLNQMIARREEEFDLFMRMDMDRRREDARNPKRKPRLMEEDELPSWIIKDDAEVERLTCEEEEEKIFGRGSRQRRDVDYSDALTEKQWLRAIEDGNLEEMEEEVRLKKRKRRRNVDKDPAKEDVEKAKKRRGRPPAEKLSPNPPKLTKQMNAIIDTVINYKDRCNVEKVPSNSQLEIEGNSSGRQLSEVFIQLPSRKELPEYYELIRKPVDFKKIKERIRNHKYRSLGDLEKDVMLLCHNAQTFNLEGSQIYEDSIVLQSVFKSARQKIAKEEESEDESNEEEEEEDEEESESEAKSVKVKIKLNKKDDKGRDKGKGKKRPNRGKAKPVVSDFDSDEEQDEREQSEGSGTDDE

Cc1ncsc1-c1ccc([C@H](C)NC(=O)[C@@H]2C[C@@H](O)CN2C(=O)[C@@H](c2cc(N3CCC(OC4CCN(C[C@H]5C[C@H](N6CCOC7(CCN(c8cc(-c9ccccc9O)nnc8N)CC7)C6)C5)CC4)CC3)no2)C(C)C)cc1 [Compound 56, (2S,4R)-4-hydroxy-N-[(1S)-1-[4-(4-methyl-1,3-thiazol-5-yl)phenyl]ethyl]-1-[(2R)-3-methyl-2-(3-{4-[(1-{[(1r,3r)-3-{9-[3-amino-6-(2-hydroxyphenyl)pyridazin-4-yl]-1-oxa-4,9-diazaspiro[5.5]undecan-4-yl}cyclobutyl]methyl}piperidin-4-yl)oxy]piperidin-1-yl}-1,2-oxazol-5-yl)butanoyl]pyrrolidine-2-carboxamide]
DC50: < 2.5 nM
Dmax: > 75%

Cc1ncsc1-c1ccc([C@H](C)NC(=O)[C@@H]2C[C@@H](O)CN2C(=O)[C@@H](c2cc(N3CCC(CN4CCC5(CC4)CC(N4CCO[C@@H](C(C)n6cc(-c7cc(-c8ccccc8O)nnc7N)cn6)C4)C5)CC3)no2)C(C)C)cc1 (stereo partly drawn) [Compound 89, (2S,4R)-1-[(2R)-2-{3-[4-({2-[(2R)-2-(1-{4-[3-amino-6-(2-hydroxyphenyl)pyridazin-4-yl]-1H-pyrazol-1-yl}ethyl)morpholin-4-yl]-7-azaspiro[3.5]nonan-7-yl}methyl)piperidin-1-yl]-1,2-oxazol-5-yl}-3-methylbutanoyl]-4-hydroxy-N-[(1S)-1-[4-(4-methyl-1,3-thiazol-5-yl)phenyl]ethyl]pyrrolidine-2-carboxamide]
DC50: < 2.5 nM
Dmax: > 75%

Cc1ncsc1-c1ccc([C@H](C)NC(=O)[C@@H]2C[C@@H](O)CN2C(=O)[C@@H](c2cc(N3CCC(CN4CCC(O[C@H]5C[C@H](N6CCN(CC7C8CCC7CN(c7cc(-c9ccccc9O)nnc7N)C8)CC6)C5)CC4)CC3)no2)C(C)C)cc1 (stereo partly drawn) [Compound 47, (2S,4R)-4-hydroxy-N-[(1S)-1-[4-(4-methyl-1,3-thiazol-5-yl)phenyl]ethyl]-1-[(2R)-3-methyl-2-{3-[4-({4-[(1r,3r)-3-[4-({3-[3-amino-6-(2-hydroxyphenyl)pyridazin-4-yl]-3-azabicyclo[3.2.1]octan-8-yl}methyl)piperazin-1-yl]cyclobutoxy]piperidin-1-yl}methyl)piperidin-1-yl]-1,2-oxazol-5-yl}butanoyl]pyrrolidine-2-carboxamide]
DC50: 2.5 to 10 nM
Dmax: > 75%

CC(C)[C@@H](C(=O)N1C[C@H](O)C[C@H]1C(=O)N[C@@H](C)c1ccc(-c2c(F)cnn2C)cc1)c1cc(N2CCC(CN3CCC(O[C@H]4C[C@H](Oc5cc(N6CCN(c7cc(-c8ccccc8O)nnc7N)CC6)ccn5)C4)CC3)CC2)no1 [Compound 40, (2S,4R)-N-[(1S)-1-[4-(4-fluoro-1-methyl-1H-pyrazol-5-yl)phenyl]ethyl]-4-hydroxy-1-[(2R)-3-methyl-2-{3-[4-({4-[(1r,3r)-3-[(4-{4-[3-amino-6-(2-hydroxyphenyl)pyridazin-4-yl]piperazin-1-yl}pyridin-2-yl)oxy]cyclobutoxy]piperidin-1-yl}methyl)piperidin-1-yl]-1,2-oxazol-5-yl}butanoyl]pyrrolidine-2-carboxamide]
DC50: < 2.5 nM
Dmax: > 75%

Cc1ncsc1-c1ccc([C@H](C)NC(=O)[C@@H]2C[C@@H](O)CN2C(=O)[C@@H](c2cc(N3CCC(CN4CCC5(CC4)CC(N4CCO[C@H](C(C)(C)N6C7CCC6CN(c6cc(-c8ccccc8O)nnc6N)C7)C4)C5)CC3)no2)C(C)C)cc1 [Compound 94, (2S,4R)-1-[(2R)-2-{3-[4-({2-[(2S)-2-(2-{3-[3-amino-6-(2-hydroxyphenyl)pyridazin-4-yl]-3,8-diazabicyclo[3.2.1]octan-8-yl}propan-2-yl)morpholin-4-yl]-7-azaspiro[3.5]nonan-7-yl}methyl)piperidin-1-yl]-1,2-oxazol-5-yl}-3-methylbutanoyl]-4-hydroxy-N-[(1S)-1-[4-(4-methyl-1,3-thiazol-5-yl)phenyl]ethyl]pyrrolidine-2-carboxamide]
DC50: 2.5 to 10 nM
Dmax: > 75%

CC(C)[C@H](C(=O)N1C[C@H](O)C[C@H]1C(=O)N[C@@H](C)c1ccc(C#N)cc1)c1cc(O[C@H]2C[C@H](CN3CCC(O[C@H]4C[C@H](Oc5cc(N6C7CCC6CN(c6cc(-c8ccccc8O)nnc6N)C7)ccn5)C4)CC3)C2)no1 [Compound 1, (2S,4R)-N-[(1S)-1-(4-cyanophenyl)ethyl]-4-hydroxy-1-[(2S)-3-methyl-2-{3-[(1r,3r)-3-({4-[(1r,3r)-3-[(4-{3-[3-amino-6-(2-hydroxyphenyl)pyridazin-4-yl]-3,8-diazabicyclo[3.2.1]octan-8-yl}pyridin-2-yl)oxy]cyclobutoxy]piperidin-1-yl}methyl)cyclobutoxy]-1,2-oxazol-5-yl}butanoyl]pyrrolidine-2-carboxamide]
DC50: ≥ 30 nM

Cc1ncsc1-c1ccc([C@H](C)NC(=O)[C@@H]2C[C@@H](O)CN2C(=O)[C@@H](c2cc(N3CCC(CN4CCC5(CC4)CC(N4CCC[C@@H](CN6C7CCC6CN(c6cc(-c8ccccc8O)nnc6N)C7)C4)C5)CC3)no2)C(C)C)cc1 [Compound 70, (2S,4R)-1-[(2R)-2-{3-[4-({2-[(3R)-3-({3-[3-amino-6-(2-hydroxyphenyl)pyridazin-4-yl]-3,8-diazabicyclo[3.2.1]octan-8-yl}methyl)piperidin-1-yl]-7-azaspiro[3.5]nonan-7-yl}methyl)piperidin-1-yl]-1,2-oxazol-5-yl}-3-methylbutanoyl]-4-hydroxy-N-[(1S)-1-[4-(4-methyl-1,3-thiazol-5-yl)phenyl]ethyl]pyrrolidine-2-carboxamide]
DC50: < 2.5 nM
Dmax: > 75%

CC(C)[C@H](C(=O)N1C[C@H](O)C[C@H]1C(=O)N[C@@H](C)c1ccc(C#N)cc1)c1cc(N2CCC(OCCN3CCC(Oc4cc(N5C6CCC5CN(c5cc(-c7ccccc7O)nnc5N)C6)ccn4)CC3)CC2)no1 [Compound 150, (2S,4R)-1-[(2S)-2-{3-[4-(2-{4-[(4-{3-[3-amino-6-(2-hydroxyphenyl)pyridazin-4-yl]-3,8-diazabicyclo[3.2.1]octan-8-yl}pyridin-2-yl)oxy]piperidin-1-yl}ethoxy)piperidin-1-yl]-1,2-oxazol-5-yl}-3-methylbutanoyl]-N-[(1S)-1-(4-cyanophenyl)ethyl]-4-hydroxypyrrolidine-2-carboxamide]
DC50: ≥ 30 nM

Cc1ncsc1-c1ccc([C@H](C)NC(=O)[C@@H]2C[C@@H](O)CN2C(=O)[C@@H](c2cc(N3CCC(CN4CCC5(CC4)CC(N4C[C@H](CN6C7CCC6CN(c6cc(-c8ccccc8O)nnc6N)C7)O[C@H](C)C4)C5)CC3)no2)C(C)C)cc1 [Compound 73, (2S,4R)-1-[(2R)-2-{3-[4-({2-[(2R,6R)-2-({3-[3-amino-6-(2-hydroxyphenyl)pyridazin-4-yl]-3,8-diazabicyclo[3.2.1]octan-8-yl}methyl)-6-methylmorpholin-4-yl]-7-azaspiro[3.5]nonan-7-yl}methyl)piperidin-1-yl]-1,2-oxazol-5-yl}-3-methylbutanoyl]-4-hydroxy-N-[(1S)-1-[4-(4-methyl-1,3-thiazol-5-yl)phenyl]ethyl]pyrrolidine-2-carboxamide]
DC50: < 2.5 nM
Dmax: > 75%
